According to patent US20240115549A1, “TREATMENT OF MENTAL DISORDERS” (GH Research Ireland Limited, priority 2022, published 2024):

How the values were obtained:
[1] = Pharmacokinetics of 5-MeO-DMT and bufotenine after inhalation; format: in vivo, human
[2] = LC-MS/MS of 5-MeO-DMT, bufotenine and 5-MIAA in breastmilk, serum and urine of a treated PPD patient; infant dose estimates; conditions: for Breastmilk concentration / Serum concentration / Urine concentration: second PPD patient, LC-MS/MS
[3] = 5 kg infant, three feeds of 250 ml
[4] = 8.5 hrs after last dose, inhaled 5-MeO-DMT
[5] = 24.0 hrs after last dose, inhaled 5-MeO-DMT
[6] = 120.0 hrs after last dose, inhaled 5-MeO-DMT
[7] = timepoint −24.0 hrs (pre-dosing), inhaled 5-MeO-DMT 6 mg then 12 mg

With `COc1ccc2[nH]cc(CCN(C)C)c2c1` [5-MeO-DMT] the Detectability in plasma ([1]; 3 hours after inhalation, 6-18 mg) was “no longer detectable”, the “Accumulation upon repeated administration” value ([1]; repeat within 1 to 4 hours) was “No accumulation” and the “DID per kg infant weight” value [2, 3] was 0.0001385 mg/kg/day. The “Total exposure of the infant (DID)” value [2, 3] was 0.0006924 mg/day, the “Detection in breastmilk” value ([2]; after 24 hours) was “did not detect any 5-MeO-DMT” and the “Serum concentration at timepoints after 1 hour” value ([2]; all subsequent timepoints) was “below the lower limit of quantification”. For the same compound, the Breastmilk concentration ([2]; 1.0 hrs after last dose, inhaled 5-MeO-DMT) was 2167.0 pg/mL, the Breastmilk concentration ([2]; 2.5 hrs after last dose, inhaled 5-MeO-DMT) was 560.6 pg/mL and the Breastmilk concentration [2, 4] was 42.1 pg/mL. The Breastmilk concentration [2, 5] was “BLG”, the Breastmilk concentration [2, 6] was “BLQ” and the Breastmilk concentration [2, 7] was “BLQ”. For the same compound, the concentration at 1 h ([2]; female, human, serum, inhaled) was 133 µg/mL, the Serum concentration ([2]; serum, 1.0 hrs after last dose, inhaled 5-MeO-DMT) was 0.0001329 µg/mL and the Serum concentration ([2]; serum, 2.5 hrs after last dose, inhaled 5-MeO-DMT) was “BLQ”. The Serum concentration ([2]; serum, 24.0 hrs after last dose, inhaled 5-MeO-DMT) was “BLQ”, the Serum concentration ([2]; serum, 120.0 hrs after last dose, inhaled 5-MeO-DMT) was “BLQ” and the Serum concentration ([2]; serum, timepoint −24.0 hrs (pre-dosing), inhaled 5-MeO-DMT 6 mg then 12 mg) was “BLQ”. The Urine concentration [2, 4] was “BLQ”, the Urine concentration [2, 5] was “BLQ” and the Urine concentration [2, 6] was “BLQ”. For the same compound, the Urine concentration [2, 7] was “BLQ”.
